Columns and labels:
[1] = tested on: bacterial H-NOX proteins (Cb SONO, Ns H-NOX, So H-NOX, Sw H-NOX); format: binding
[2] = Compound solubility; format: physicochemical
[3] = tested on: Ms sGC-NT23; experiment: Determination of CO dissociation constants, Ms sGC-NT23; format: binding, Manduca sexta; settings: stimulator 5 μM, versus no stimulator
[4] = tested on: Ms sGC-β1; experiment: Photoaffinity labeling with IWP-854, western blot, Ms sGC-β1; format: binding, Manduca sexta
[5] = tested on: Ms sGC-NT23; experiment: Photoaffinity labeling with IWP-854, western blot, Ms sGC-NT23; format: binding, Manduca sexta
[6] = tested on: bacterial H-NOX proteins (Cb SONO, Ns H-NOX, So H-NOX, Sw H-NOX); format: binding; remark: listed apart in the source
[7] = background statement; cited from earlier work
[8] = biological target: T1, human sGC (Homo sapiens, UniProt Q02153); experiment: cGMP measurement, catalytic activity of human sGC in transfected HEK293T lysate; format: biochemical; settings: stimulator 5 μM
T1 construct: Hs SGC-β1 (β1 1-619-His6); expressed in transfected cells; host or cells: HEK293T
T1 sequence (Q02153 1-619): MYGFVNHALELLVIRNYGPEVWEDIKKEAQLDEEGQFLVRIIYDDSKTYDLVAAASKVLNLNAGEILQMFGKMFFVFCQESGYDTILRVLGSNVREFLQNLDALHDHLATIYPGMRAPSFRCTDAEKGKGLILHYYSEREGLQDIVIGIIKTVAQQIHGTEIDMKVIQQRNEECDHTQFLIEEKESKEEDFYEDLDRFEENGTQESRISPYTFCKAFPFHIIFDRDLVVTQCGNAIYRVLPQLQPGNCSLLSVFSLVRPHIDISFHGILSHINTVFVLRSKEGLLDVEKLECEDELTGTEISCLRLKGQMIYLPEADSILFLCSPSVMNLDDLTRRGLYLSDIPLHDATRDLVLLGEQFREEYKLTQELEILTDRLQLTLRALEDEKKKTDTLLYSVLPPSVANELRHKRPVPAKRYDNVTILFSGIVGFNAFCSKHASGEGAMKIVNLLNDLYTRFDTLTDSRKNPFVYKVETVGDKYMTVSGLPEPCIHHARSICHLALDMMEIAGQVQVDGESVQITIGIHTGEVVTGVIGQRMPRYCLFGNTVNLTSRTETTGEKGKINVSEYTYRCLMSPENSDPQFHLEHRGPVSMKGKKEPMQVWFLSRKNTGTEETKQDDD
T1 sequence (Q02108 1-690 partner): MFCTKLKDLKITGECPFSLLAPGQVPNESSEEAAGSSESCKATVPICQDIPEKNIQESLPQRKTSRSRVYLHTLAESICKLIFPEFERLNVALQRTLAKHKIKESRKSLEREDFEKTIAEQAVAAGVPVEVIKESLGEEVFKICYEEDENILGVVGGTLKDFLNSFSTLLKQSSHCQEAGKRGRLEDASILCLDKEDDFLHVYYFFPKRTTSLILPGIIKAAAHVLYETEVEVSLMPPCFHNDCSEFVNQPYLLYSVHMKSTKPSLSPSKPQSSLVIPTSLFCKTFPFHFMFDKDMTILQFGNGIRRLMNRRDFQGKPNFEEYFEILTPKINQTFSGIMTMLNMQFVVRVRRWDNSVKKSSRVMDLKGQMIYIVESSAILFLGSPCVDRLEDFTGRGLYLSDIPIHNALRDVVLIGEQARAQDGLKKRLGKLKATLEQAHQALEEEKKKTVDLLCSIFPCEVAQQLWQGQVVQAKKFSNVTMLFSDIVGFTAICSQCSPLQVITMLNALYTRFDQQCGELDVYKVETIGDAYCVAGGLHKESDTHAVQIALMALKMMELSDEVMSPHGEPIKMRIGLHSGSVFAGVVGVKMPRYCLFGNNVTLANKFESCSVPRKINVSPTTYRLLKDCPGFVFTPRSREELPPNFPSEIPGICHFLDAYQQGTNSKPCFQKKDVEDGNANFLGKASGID

[9] = biological target: T2, full-length Hs sGC (Homo sapiens, UniProt Q02153); experiment: Photoaffinity labeling with IWP-854, western blot, full-length Hs sGC; format: binding; settings: IWP-854 1 μM; not competed away with excess stimulator
T2 construct: Full-length human sGC was purchased from Enzo Life Sciences, Inc; purchased Enzo Life Sciences, Inc
T2 sequence (Q02153 1-619): T1 sequence (Q02153 1-619)
T2 sequence (Q02108 1-690 partner): T1 sequence (Q02108 1-690 partner)

Row | SMILES | enhancement of CO binding [1] | compound solubility [2] | enhancement of CO affinity [3] [fold] | competition of IWP-854 labeling ([4]; BAY 41-2272 against IWP-854) | competition of IWP-854 cross-linking ([5]; BAY 41-2272 1-25 μM against IWP-854 1 μM) | competition of IWP-854 labeling [6] | solubility compared with traditional stimulators [7] | labeling of the isolated β1 subunit ([4]; β1 residues 1-380) | subunit cross-linked by IWP-854 ([5]; IWP-854 1 μM, 15 min UV, anti-biotin western blot) | increase of sGC activity over basal levels ([8]; absence of added NO) [fold] | stimulation of recombinant human sGC, compared with BAY 41-2272 ([8]; basal and NO stimulated) | increase of sGC activity over basal ([8]; upon addition of NO (DEA/NO 100 μM)) [fold] | labeling of the α1 subunit [9] | amount of IWP-854 required for photoaffinity labeling relative to sGC constructs [6] [fold] | labeling of bacterial H-NOX proteins [6]
1 | Nc1nc(-c2nn(Cc3ccccc3F)c3ncccc23)ncc1C1CC1 [BAY 41-2272, reference compound] | did not enhance CO binding | poor compound solubility | 14 | failed to diminish IWP-854 labeling | attenuated IWP-854 cross-linking to Ms sGC-NT23 in a concentration-dependent manner | reduced but not eliminated |  |  |  |  |  |  |  |  | 
2 | O=c1[nH]c(-c2cc(-c3ccon3)n(Cc3ccccc3F)n2)ncc1F [IWP-051] |  |  |  |  |  |  | improved solubility over traditional stimulators |  |  |  |  |  |  |  | 
3 | CC1(CCCN(CCOCCOCCOCCOCCC(=O)NCCOCCOCCOCCOCCOCCOCCOCCOCCOCCOCCOC(C)(C)CCNC(=O)CCCCC2SC[C@@H]3NC(=O)N[C@H]23)c2nc(-c3cc(-c4ccon4)n(Cc4ccccc4F)n3)ncc2F)N=N1 (stereo partly shown) [IWP-854] |  |  | 34 |  |  |  |  | labeled the isolated β1 subunit | cross-links exclusively to the β1 subunit | 12 | stimulate to a similar extent as BAY 41-2272 | 84 | Faint labeling was observed on the α1 subunit | 10 | labeled all four bacterial H-NOX proteins

Reference: patent US20190234956A1 (priority 2016, published 2019)
